Experiments:
Hela S3 cells [1] = conditions: background statement; cited from earlier work
ICR strain mice = test: Pulmonary toxicity (pulmonary fibrosis) in mice, intraperitoneal injection; assay type: in vivo; conditions: 5 mg/kg i.p. once a day for 10 days; for Grade of pulmonary fibrosis, % / Incidence of pulmonary fibrosis, % / Incidence: number of mice suffering from pulmonary fibrosis / Grade: total score of pulmonary fibrosis/total number of test animal: autopsy after 5 weeks; for Incidence: number of mice suffering from pulmonary fibrosis: affected/total mice; for Grade: total score of pulmonary fibrosis/total number of test animal: score 0-6 points; for Grade of pulmonary fibrosis, Ratio / Incidence of pulmonary fibrosis, Ratio: reference of the ratio not stated
Method in brief: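 Male ICR mice, 15 weeks old, 9 per group, received 5 mg/kg intraperitoneally once daily for 10 days. They were autopsied after 5 weeks' observation for pulmonary fibrosis incidence and grade: 1, alveolar exudate/septal fibrosis-like change; 2, fibrosis in several areas; 4, scattered fibrosis; 6, fibrosis over >2/3 of area.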

Hela S3 cells [2] = test: Growth inhibitory activity against Hela S3 cells; assay type: cell-based; conditions: Cu-free form; Hela S3, 3 days incubation with compound
Procedure: The percentage growth inhibition was calculated using the equation: […] wherein A is the ultimate number of cells on the third day from the addition of a test sample, B is the ultimate number of cells in the control (without the addition of test sample), and C is the number of cells on the day of addition of the test sample.

Bacillus subtilis = test: Antimicrobial activity, agar plate-cylinder method; assay type: cell-based; conditions: Cu-free form; bleomycin A2 (Cu-free form) standard assumed 1,000 mcg/mg
Procedure: (1) Antimicrobial activity against Mycobacterium smegmatis ATCC 697 and Bacillus subtilis.
(§1) The activity was assayed against the above test microorganisms by the method of agar plate-cylinder, assuming the potency of bleomycin A2 (Cu-free form), used as standard, to be 1,000 mcg/mg.

[3] = test system: Mycobacterium smegmatis ATCC 607; test: Antimicrobial activity, agar plate-cylinder method; assay type: cell-based; conditions: Cu-free form; bleomycin A2 (Cu-free form) standard assumed 1,000 mcg/mg
Procedure: as §1

[4] = test system: Lymphocytic leukemia P-388; test: In vivo antitumor activity, murine lymphocytic leukemia P-388; conditions: BDF1-SLC mice, i.p. transplant, once daily for 9 days, 30 days observation; T/C more than 130 effective
[5] = test system: CDF1 /SLC strain male mice; test: Acute toxicity, LD50 on 10 consecutive days; assay type: in vivo; conditions: subcutaneous, Behrens-Karber method
Procedure: LD50 was assayed by administering several representative compounds of this invention for 10 consecutive days.
CDF1 /SLC strain male mice (each 6 weeks old, 7 members per group) were subcutaneously administered with various compounds of this invention, the dose being different with each compound. LD50 (daily dose) was estimated from the mortality during the administration period by the Behrens-Karber method.

Compound	Growth inhibition of Hela Cell (in words) (Hela S3 cells [1])	Grade of pulmonary fibrosis, % (ICR strain mice) [%]	Incidence of pulmonary fibrosis, % (ICR strain mice) [%]	Incidence: number of mice suffering from pulmonary fibrosis (ICR strain mice)	Grade: total score of pulmonary fibrosis/total number of test animal (ICR strain mice)	Grade of pulmonary fibrosis, Ratio (ICR strain mice)	Incidence of pulmonary fibrosis, Ratio (ICR strain mice)	50% growth inhibition concentration (ID50) of Cu--free compound against cultured Hela cell (Hela S3 cells [2]) [µg/mL]	Antimicrobial potency of Cu--free compound, against Bacillus subtilis (Bacillus subtilis) [mcg potency per mg]	Antimicrobial potency of Cu--free compound, against Mycobacterium smegmatis ATCC 607 [3] [mcg potency per mg]	Max. T/C on Mouse Lymphocytic Leukemia P 388 [4] [%]	LD50 (daily dose) [5] [mg/kg/day]
Cc1c(N)nc(C(CC(N)=O)NCC(N)C(N)=O)nc1C(=O)NC(C(=O)NC(C)C(O)C(C)C(=O)NC(C(=O)NCCc1nc(-c2nc(C(=O)NCCCN(C)CCCN)cs2)cs1)C(C)O)C(OC1OC(CO)C(O)C(O)C1OC1OC(CO)C(O)C(OC(N)=O)C1O)c1cnc[nH]1 (centres unmarked) [APMP, 3-[N-(3-aminopropyl)-N-methylamino]propylaminobleomycin, reference compound]	strongly inhibits	0	100	9/9	48/27	2.15	1.6					
Cc1c(N)nc(C(CC(N)=O)NCC(N)C(N)=O)nc1C(=O)NC(C(=O)NC(C)C(O)C(C)C(=O)NC(C(=O)NCCc1nc(-c2nc(C(=O)NCCCN(C)CCCN(Cc3ccc(OCc4ccccc4)c(OCc4ccccc4)c3)Cc3ccc(OCc4ccccc4)c(OCc4ccccc4)c3)cs2)cs1)C(C)O)C(OC1OC(CO)C(O)C(O)C1OC1OC(CO)C(O)C(OC(N)=O)C1O)c1cnc[nH]1 (centres unmarked) [Compound No. 34, 3-{N--Methyl-N--[3'-(bis(m,p-dibenzyloxybenzyl)amino)propyl]amino}propylaminoBLM]		0	0	0/9	0/27	0.00	0.00	0.38	49	164	205	60.0
Cc1c(N)nc(C(CC(N)=O)NCC(N)C(N)=O)nc1C(=O)NC(C(=O)NC(C)C(O)C(C)C(=O)NC(C(=O)NCCc1nc(-c2nc(C(=O)NCCCN(C)CCCNCC3CCCCCCCCCC3)cs2)cs1)C(C)O)C(OC1OC(CO)C(O)C(O)C1OC1OC(CO)C(O)C(OC(N)=O)C1O)c1cnc[nH]1 (centres unmarked) [Compound No. 32, 3-{N--Methyl-N--[3'-(cycloundecanylmethylamino)propyl]amino}propylaminoBLM]		0	0	0/9	0/27	0.00	0.00	0.58	8146	28308	166	17.5
